Measurements: paper PMC9320607, “Synthesis, Biological Evaluation and Docking Studies of Ring-Opened Analogues of Ipomoeassin F” (Molecules, 2022)
Entries after “also recorded” stand apart in the source; their conditions may differ. Like-named read-outs stand apart in the source and are kept apart here.

Legend:
[1] = test system: MDA-MB-231 cells; assay: Resazurin-based cytotoxicity assay in MDA-MB-231 cells; type: cell-based, human; details: for IC50: Homo sapiens; for loss in activity when compared to 1: MDA-MB-231 cells IC50
Text: (§1) To investigate the impact of ring-opening, we first submitted the open-chain analogue 1 [9] to the National Cancer Institute (NCI) 60-cell line screening (Supplementary Material S1) and determined the cytotoxicity of nine newly synthesized open-chain analogues 4–12 (Figure 2, Supplementary Materials S2 and S3) against MDA-MB-231 cells (Table S1). […] Furthermore, the majority of the nine new open-chain analogues were modestly less cytotoxic towards MDA-MB-231 cells when compared to their direct ring-closed counterparts (analogues 13–21 matching with 4–12; Figures S1 and S2 and Table S1).
The human breast cancer cell line (MDA-MB-231) was maintained in a DMEM high glucose culture medium supplemented with 10% (v/v) fetal bovine serum (FBS) and 2 mM L-glutamine. Parental (Sec61α-WT) HCT-116 (human colorectal cancer cells, ATCC, CCL-247) and mutant (Sec61α-G80W) HCT-116 cells were maintained in McCoy’s 5A (modified) medium ((ThermoFisher, Waltham, MA, USA, 16600-082)) supplemented with 10% (v/v) FBS (Gibco, 10500-064) and 100 units/mL penicillin and […] streptomycin (Gibco, cat: 15140-122). All cell lines were maintained in a 5% CO2 humidified incubator at 37 °C. Cytotoxicity assays were performed in triplicate sets as previously described and viable cells were counted using an automated cell counter (Bio-Rad TC20) immediately before each experiment. Compound stock solutions in DMSO (10 mM) were diluted with supplemented culture media (MDA-MB-231 cells: high glucose DMEM; HCT116 Sec61α-WT and Sec61α-G80W cells: McCoy’s (modified) 5A) to make a series of gradient fresh working solutions at equal DMSO percentage immediately prior to each test. First, […] of cells at a cell density of […] (MDA-MB-231 cells) or 2.5 × 10^4 cells/mL (Sec61α-WT or Sec61α-G80W HCT-116 cells) were seeded in black 96-well microtiter plates (Falcon, product 353219; 2500 cells/well) and incubated at 37° C for 24 h. Subsequently, the cells were treated with either […] of the freshly made gradient working solution in a total volume of […]/well (MDA-MB-231 cells) or 25 mL of freshly made gradient in a total volume of […]/well (Sec61α-WT or Sec61α-G80W HCT-116 cells) at 37 °C for 72 h. For MDA-MB-231 cells, the media were discarded and […] fresh medium containing 10% (v/v) alamarBlue HS cell viability reagent (resazurin stock solution) (ThermoFisher, Waltham, MA, USA, A50100) was added to each well. For Sec61α-WT or Sec61α-G80W HCT-116 cells, the media was not discarded and alamarBlue HS cell viability reagent (resazurin stock solution) (ThermoFisher, Waltham, MA, USA, A50100) was added to 10% (v/v). After that, all cells were incubated at 37 °C for a further 1–3 h and the emission of each well at 620 nm was detected using a Synergy H1 Hybrid multi-mode plate reader (BioTek, Agilent Technologies, Palo Alto, CA, USA) at excitation 580 nm. […] IC50 value estimates were determined using nonlinear regression to fit data to a curve of variable slope (four parameters) using the least-squares fitting method. For HCT-116 cell IC50 curves, the top and bottom plateaus were defined as 100% and 23.70% (the mean of all data at 25 µM across all compounds), respectively.

[2] = test system: NCI 60-cell line; assay: NCI 60-cell line screening; type: cell-based, human; details: Homo sapiens, 60 cell, read-out: average GI50
Text: as §1

[3] = target: T1, Sec61-mediated protein translocation (membrane integration of Ii) (Canis lupus familiaris, UniProt P38377); assay: In vitro membrane insertion assay of Ii with ER microsomes; type: biochemical, canine; details: for reduction in Ii membrane integration / inhibition of in vitro membrane integration of Ii: 1 µM compound; for inhibition of in vitro membrane integration of Ii: versus DMSO control
T1 construct: cell-free translation system supplemented with ER microsomes derived from canine pancreas; from tissue; host or cells: canine pancreas ER microsomes (nuclease-treated); the Ii substrate was translated in vitro from T7-transcribed RNA
Text: Having previously established that the principal molecular basis for the cytotoxicity of Ipom-F is its strong, yet reversible, binding to Sec61α and the resultant wide-ranging blockade of Sec61-mediated protein translocation at the ER [13], we sought evidence that this mechanism also underlies the cytotoxic effects of 1 and other open-chain analogues. […] For comparative purposes, we analyzed the effects of 2 [13] and two closed-chain compounds: Ipom-F and the diester-modified analogue 22 [11] in parallel (Figure 3A).
Following the resolution of radiolabeled proteins by SDS-PAGE (Figure 3B), we used the efficiency with which the N-terminal domain of the type II integral membrane protein Ii (short form of HLA class II histocompatibility antigen gamma chain, isoform 1) was N-glycosylated inside the ER lumen as a robust reporter for the authentic membrane integration of this model Sec61-dependent protein client (Figure 3B, right upper panel, 0Gly versus 2 Gly forms).
Linear DNA of the short form of human HLA class II histocompatibility antigen gamma chain (Ii; P04232, […], residues 17–232) or human glycophorin C (GypC; P04921) were generated by PCR and transcribed into RNA using T7 RNA polymerase (Promega). Membrane insertion assays (20 µL, 1 h at 30 °C, containing 6.5% (v/v) nuclease-treated ER microsomes (from stock with OD280 = 44/mL)), endoglycosidase Hf (New England Biolabs) treatment, sample resolution by SDS-PAGE (16% polyacrylamide gels) and gel drying were performed as previously described. Following exposure to a phosphorimaging plate for 24–72 h, radiolabeled products were visualized using a Typhoon FLA-7000 (GE Healthcare, Tokyo, Japan) and the ratio of the signal intensity for the N-glycosylated (XGly) and non-glycosylated (0Gly) forms obtained using AIDA v.5.0 (Raytest Isotopenmeβgeräte). This value was then expressed relative to the matched DMSO control (set to 100%) in order to estimate the mean relative insertion (± SEM) from insertion experiments performed in triplicate (n = 3, biologically independent experiments). IC50 value estimates were determined in Prism 8 (GraphPad, San Diego, CA, USA) using nonlinear regression to fit data to a curve of variable slope (four parameters) using the least-squares fitting method, with the top and bottom plateaus of the curve defined as 100% and 7.67% (the mean of all data at 500 µM across all compounds), respectively.

[4] = test system: HCT116 Sec61α-WT cells; assay: Resazurin-based cell viability assay in HCT116 Sec61α-WT cells; parameters: species or system human; details: for cell death: 50 nM, 72 h; for IC50: Homo sapiens
Description: Parental (Sec61α-WT) […] All cell lines were maintained in a 5% CO2 humidified incubator at 37 °C. Cytotoxicity assays were performed in triplicate sets as previously described and viable cells were counted using an automated cell counter (Bio-Rad TC20) immediately before each experiment. Compound stock solutions in DMSO (10 mM) were diluted with supplemented culture media (MDA-MB-231 cells: high glucose DMEM; HCT116 Sec61α-WT and Sec61α-G80W cells: McCoy’s (modified) 5A) to make a series of gradient fresh working solutions at equal DMSO percentage immediately prior to each test. […] For MDA-MB-231 cells, the media were discarded and […] fresh medium containing 10% (v/v) alamarBlue HS cell viability reagent (resazurin stock solution) (ThermoFisher, Waltham, MA, USA, A50100) was added to each well. For Sec61α-WT or Sec61α-G80W HCT-116 cells, the media was not discarded and alamarBlue HS cell viability reagent (resazurin stock solution) (ThermoFisher, Waltham, MA, USA, A50100) was added to 10% (v/v). After that, all cells were incubated at 37 °C for a further 1–3 h and the emission of each well at 620 nm was detected using a Synergy H1 Hybrid multi-mode plate reader (BioTek, Agilent Technologies, Palo Alto, CA, USA) at excitation 580 nm. […] IC50 value estimates were determined using nonlinear regression to fit data to a curve of variable slope (four parameters) using the least-squares fitting method.

[5] = MDA-MB-231, MDA-MB-231 cells, at least three independent experiments, read-out: IC50 ± SD, ring-open
[6] = MDA-MB-231, 72 h, MDA-MB-231 cells, 72 h, read-out: IC50 (cytotoxicity)
[7] = Table 1, Ii membrane integration, read-out: In Vitro Translocation Inhibition (IC50)
[8] = HCT-116, Table 1, HCT116 Sec61α-WT cells, read-out: Cytotoxicity HCT-116 Cells (IC50)

T1 sequence (P60058 whole entry): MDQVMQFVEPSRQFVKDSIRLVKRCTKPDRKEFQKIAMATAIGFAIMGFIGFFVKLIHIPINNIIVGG
T1 sequence (P38377 2-476): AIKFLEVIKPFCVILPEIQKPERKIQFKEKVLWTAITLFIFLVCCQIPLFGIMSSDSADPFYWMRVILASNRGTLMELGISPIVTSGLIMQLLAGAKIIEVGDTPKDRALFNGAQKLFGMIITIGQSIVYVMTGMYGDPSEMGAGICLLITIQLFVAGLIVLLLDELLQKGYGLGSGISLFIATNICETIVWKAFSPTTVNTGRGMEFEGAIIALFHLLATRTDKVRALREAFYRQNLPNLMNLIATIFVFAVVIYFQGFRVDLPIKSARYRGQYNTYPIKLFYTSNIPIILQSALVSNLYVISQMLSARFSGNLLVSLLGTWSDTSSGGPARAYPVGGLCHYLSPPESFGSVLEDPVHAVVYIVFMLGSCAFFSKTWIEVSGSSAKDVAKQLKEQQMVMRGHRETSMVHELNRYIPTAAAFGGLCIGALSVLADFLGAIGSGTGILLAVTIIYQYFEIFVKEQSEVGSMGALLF
T1 sequence (P60467 2-96, further chain): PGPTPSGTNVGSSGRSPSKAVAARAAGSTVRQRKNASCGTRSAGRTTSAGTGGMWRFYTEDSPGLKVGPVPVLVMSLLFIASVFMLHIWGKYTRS

Row | Structure (SMILES) | inhibition of in vitro membrane integration of Ii [3] | cell death ([4]; HCT116 Sec61α-WT cells) | IC50 [1, 5] [nM] | further results
1 | C/C=C(\C)C(=O)O[C@@H]1[C@@H](O)[C@@H]2O[C@H]3[C@H](O[C@@H](CCCCC)CCCCCCC(=O)CCC(=O)OC[C@@H](O2)[C@H]1OC(=O)/C=C/c1ccccc1)O[C@H](C)[C@H](OC(C)=O)[C@@H]3O [Ipom-F, ipomoeassin F] | efficiently, albeit variably, inhibited | 48–64% |  | IC50 ([1]; MDA-MB-231, 72 h, read-out: IC50 (cytotoxicity)): ~7 nM; IC50 ([1]; MDA-MB-231, read-out: IC50 ± SD, ring-closed): 6.5 ± 0.4 nM; GI50 [2]: ~30 nM; IC50 [3]: 155 nM; reduction in Ii membrane integration [3]: 73–86%; IC50 ([4]; HCT-116, read-out: Cytotoxicity HCT-116 Cells (IC50)): 18 nM
2 | C=CCCCC(=O)CCC(=O)OCC1OC(OC2C(OC(CC=C)CCCCC)OC(C)C(OC(C)=O)C2O)C(O)C(OC(=O)C(C)=CC)C1OC(=O)CCc1ccccc1 (centres unmarked) [analogue 9] |  |  | 2170 | 
3 | C=CCCCC(=O)CCC(=O)OCC1OC(OC2C(OC(CC=C)CCCCC)OC(C)C(OC(C)=O)C2O)C(O)C(OC(=O)C(C)=CC)C1OC(=O)c1ccccc1 (centres unmarked) [analogue 8] |  |  | 4610 | 
4 | C=CCCCC(=O)CCC(=O)OCC1OC(OC2C(OC(CC=C)CCCCC)OC(C)C(OC(C)=O)C2O)C(O)C(O)C1OC(=O)C=Cc1ccccc1 (centres unmarked) [analogue 11] |  |  | 6320 | 
5 | C=CCCCC(=O)CCC(=O)OCC1OC(OC2C(OC(CC=C)CCCCC)OC(C)C(OC(C)=O)C2O)C(O)C(OC(=O)C(C)=CC)C1O (centres unmarked) [analogue 12] |  |  | 5600 | 
6 | C=CCCCCCCC(=O)OCC1OC(OC2C(OC(CC=C)CCCCC)OC(C)C(OC(C)=O)C2O)C(O)C(OC(=O)C(C)=CC)C1OC(=O)C=Cc1ccccc1 (centres unmarked) [analogue 6] | did not; also recorded: negligible inhibition | ~ 20% | 205 ± 11 | IC50 [1, 6]: ~205 nM; loss in activity when compared to 1 [1]: 3–4 fold
7 | C=CCCCC(=O)CCC(=O)OCC1OC(OC2C(OC(CC=C)CCCCC)OC(C)C(O)C2O)C(O)C(OC(=O)C(C)=CC)C1OC(=O)C=Cc1ccccc1 (centres unmarked) [analogue 7] |  |  | 3880 | 
8 | C#CCOc1ccc(C=CC(=O)OC2C(COC(=O)CCC(=O)CCCC=C)OC(OC3C(OC(CC=C)CCCCC)OC(C)C(OC(C)=O)C3O)C(O)C2OC(=O)C(C)=CC)cc1 (centres unmarked) [analogue 4] |  |  | 168 ± 19 | IC50 [1, 6]: ~168 nM; loss in activity when compared to 1 [1]: 3–4 fold
9 | C/C=C(\C)C(=O)O[C@@H]1[C@@H](O)[C@@H]2O[C@H]3[C@H](O[C@@H](CCCCC)CCCCCOC(=O)CCC(=O)OC[C@@H](O2)[C@H]1OC(=O)/C=C/c1ccccc1)O[C@H](C)[C@H](OC(C)=O)[C@@H]3O [analogue 22] | efficiently, albeit variably, inhibited | 48–64% |  | IC50 [3, 7]: 334 nM; IC50 [4, 8]: 70 nM
10 | C=CCCN(C)C(=O)CCC(=O)OCC1OC(OC2C(OC(CC=C)CCCCC)OC(C)C(OC(C)=O)C2O)C(O)C(OC(=O)C(C)=CC)C1OC(=O)C=Cc1ccccc1 (centres unmarked) [analogue 5] | efficiently, albeit variably, inhibited | 48–64% | 43 ± 11 | IC50 [1, 6]: ~43 nM; reduction in Ii membrane integration [3]: 73–86%; IC50 [3, 7]: 291 nM; IC50 [4, 8]: 41 nM
11 | C=CCCCC(=O)CCC(=O)OCC1OC(OC2C(OC(CC=C)CCCCC)OC(C)C(OC(C)=O)C2O)C(O)C(OC(=O)C(C)=CC)C1OC(=O)C(C)=CC (centres unmarked) [analogue 10] |  |  | 2740 | 
12 | C/C=C(\C)C(=O)O[C@@H]1[C@@H](O)[C@H](O[C@H]2[C@H](O[C@H](CCC)CCCCC)O[C@H](C)[C@H](OC(C)=O)[C@@H]2O)O[C@H](COC(=O)CCC(=O)CCCCC)[C@H]1OC(=O)/C=C/c1ccccc1 [analogue 2] | efficiently, albeit variably, inhibited | 48–64% |  | reduction in Ii membrane integration [3]: 73–86%; IC50 [3, 7]: 202 nM; IC50 [4, 8]: 41 nM
